Laboratory results published in the supplement of paper PMC11451515.

Key:
Conditions in all cases: 48 h
[1] = tested on: SEM cells; assay: cell viability relative to DMSO control; higher = less cytotoxic
Procedure, shortened: (§1)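 Leukemia cells (NOMO1 or SEM, 500 cells/well; P12-Ichikawa, 1000 cells/well) were seeded in 5 μl in 1536-well plates after at least four passages of adaptation to each medium. They received library compounds in DMSO by pin dosing, 11 threefold points from 47 μM to 0.79 nM. Luminescence with CellTiter-Glo One was read after 48 h at 37°C. Viability is stated per plate relative to DMSO wells, with cell-free wells as background.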

[2] = tested on: P12-Ichikawa; assay: AUC of viability dose-response curve (% viability x log10 dose units); higher = less sensitive
Procedure, shortened: (§2)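 Library compounds in DMSO were applied for 48 h at 37°C at 11 threefold doses (47 μM to 0.79 nM) to medium-adapted leukemia cells in 1536-well plates holding 500 or 1000 cells/well. Luminescence from CellTiter-Glo One was normalised plate by plate against DMSO and cell-free wells. Area under the curve came from trapezoidal integration of a log-logistic fit, after scaling curves that rose above full viability and discarding those that failed quality control. The fit had four parameters and used log10 doses.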

[3] = tested on: SEM cells; assay: as above
Procedure, shortened: as §2

[4] = tested on: NOMO1; assay: as above
Procedure, shortened: as §2

[5] = tested on: P12-Ichikawa; assay: cell viability relative to DMSO control; higher = less cytotoxic
Procedure, shortened: as §1

[6] = tested on: NOMO1; assay: as above
Procedure, shortened: as §1

Nc1nc(Cl)nc2c1ncn2[C@H]1C[C@H](O)[C@@H](CO)O1
[1], HPLM + 10% dialyzed FBS
Conditions	cell viability [%]
0.000781 µM	114
0.00234 µM	119
0.00702 µM	115
0.0211 µM	133
0.0632 µM	115
0.19 µM	15.7
0.569 µM	13.9
1.71 µM	12.7
5.12 µM	11.6
15.4 µM	9.89
46.1 µM	5.05

AUC of viability dose-response curve
Conditions	[2]	[3]	[4]
HPLM + 10% dialyzed FBS	263	238	256
RPMI 5 mM glucose + 10% FBS	254	226	270
RPMI 5 mM glucose + 10% dialyzed FBS	272	212	257

C[C@@H]1[C@H](O)[C@@H](C)C=CC=CCCC=CC=CC=CC=C[C@H](O[C@H]2O[C@@H](C)[C@H](O)[C@@H](N)[C@H]2O)CC2O[C@](O)(C[C@@H](O)[C@H](O)CC[C@@H](O)C[C@@H](O)C[C@@H](O)CC(=O)O[C@H]1C)C[C@H](O)[C@H]2C(=O)O
AUC of viability dose-response curve
Conditions	[2]	[3]	[4]
HPLM + 10% dialyzed FBS	459	451	458
RPMI 5 mM glucose + 10% FBS	429	448	432
RPMI 5 mM glucose + 10% dialyzed FBS	456	447	432

CC(C)(Oc1ccc(C2CC2(Cl)Cl)cc1)C(=O)O (configuration not stated)
cell viability [%], [1]
Conditions	HPLM + 10% dialyzed FBS	RPMI 5 mM glucose + 10% FBS
0.000781 µM	125	117
0.00234 µM	131	109
0.00702 µM	123	101
0.0211 µM	125	111
0.0632 µM	127	101
0.19 µM	128	110
0.569 µM	120	91.9
1.71 µM	122	119
5.12 µM	95.3	79.9
15.4 µM	110	106
46.1 µM	63.6	49

AUC of viability dose-response curve
Conditions	[2]	[3]	[4]
HPLM + 10% dialyzed FBS	453	444	457
RPMI 5 mM glucose + 10% FBS	447	464	454
RPMI 5 mM glucose + 10% dialyzed FBS	453	456	453

C=CC[C@@H]1/C=C(\C)C[C@H](C)C[C@H](OC)[C@H]2O[C@@](O)(C(=O)C(=O)N3CCCC[C@H]3C(=O)O[C@H](/C(C)=C/[C@@H]3CC[C@@H](O)[C@H](OC)C3)[C@H](C)[C@@H](O)CC1=O)[C@H](C)C[C@@H]2OC
[1], HPLM + 10% dialyzed FBS
Conditions	cell viability [%]
0.000781 µM	102
0.00234 µM	125
0.00702 µM	131
0.0211 µM	123
0.0632 µM	115
0.19 µM	111
0.569 µM	107
1.71 µM	74.9
5.12 µM	60.9
15.4 µM	30.8
46.1 µM	100

AUC of viability dose-response curve
Conditions	[2]	[3]	[4]
HPLM + 10% dialyzed FBS	466	400	412
RPMI 5 mM glucose + 10% FBS	448	376	453
RPMI 5 mM glucose + 10% dialyzed FBS	449	362	436

CN1CCN(CC1)C2=C3OCN(C)N4\C=C(C(O)=O)/C(=O)C(=C34)C=C2F
[1], HPLM + 10% dialyzed FBS
Conditions	cell viability [%]
0.000781 µM	66.2
0.00234 µM	116
0.00702 µM	120
0.0211 µM	124
0.0632 µM	115
0.19 µM	115
0.569 µM	117
1.71 µM	116
5.12 µM	102
15.4 µM	105
46.1 µM	82

AUC of viability dose-response curve
Conditions	[2]	[3]	[4]
HPLM + 10% dialyzed FBS	459	471	454
RPMI 5 mM glucose + 10% FBS	459	466	450
RPMI 5 mM glucose + 10% dialyzed FBS	465	434	465

CN(NC(=O)CC(=O)NN(C)C(=S)c1ccccc1)C(=S)c1ccccc1
cell viability [%]
Conditions	[1]	[5]	[6]
HPLM + 10% dialyzed FBS, 0.000781 µM	84.1	90.7	85.2
HPLM + 10% dialyzed FBS, 0.00234 µM	89.7	88.6	101
HPLM + 10% dialyzed FBS, 0.00702 µM	98.9	91.7	91.7
HPLM + 10% dialyzed FBS, 0.0211 µM	83.7	88.1	111
HPLM + 10% dialyzed FBS, 0.0632 µM	15.8	58.8	52.3
HPLM + 10% dialyzed FBS, 0.19 µM	4.39	31.4	21.7
HPLM + 10% dialyzed FBS, 0.569 µM	3.48	4.03	3.16
HPLM + 10% dialyzed FBS, 1.71 µM	3.79	3.29	4.21
HPLM + 10% dialyzed FBS, 5.12 µM	4.13	3.87	4.19
HPLM + 10% dialyzed FBS, 15.4 µM	3.69	4.02	4.38
HPLM + 10% dialyzed FBS, 46.1 µM	4.7	38.3	6.98
RPMI 5 mM glucose + 10% FBS, 0.000781 µM	112	75.8	86
RPMI 5 mM glucose + 10% FBS, 0.00234 µM	116	86.9	80.2
RPMI 5 mM glucose + 10% FBS, 0.00702 µM	117	86.6	97.5
RPMI 5 mM glucose + 10% FBS, 0.0211 µM	120	90.8	95.2
RPMI 5 mM glucose + 10% FBS, 0.0632 µM	18.3	56.8	53.4
RPMI 5 mM glucose + 10% FBS, 0.19 µM	6.81	24.1	16.7
RPMI 5 mM glucose + 10% FBS, 0.569 µM	5.75	2.71	3.21
RPMI 5 mM glucose + 10% FBS, 1.71 µM	5.74	2.73	3.39
RPMI 5 mM glucose + 10% FBS, 5.12 µM	6.44	3.65	4.47
RPMI 5 mM glucose + 10% FBS, 15.4 µM	5.8	3.06	6.75
RPMI 5 mM glucose + 10% FBS, 46.1 µM	5.63	42.1	15.8
RPMI 5 mM glucose + 10% dialyzed FBS, 0.000781 µM	78.8	92.4	83.4
RPMI 5 mM glucose + 10% dialyzed FBS, 0.00234 µM	75.8	89.9	89.2
RPMI 5 mM glucose + 10% dialyzed FBS, 0.00702 µM	80.7	102	82.1
RPMI 5 mM glucose + 10% dialyzed FBS, 0.0211 µM	93.1	101	94.6
RPMI 5 mM glucose + 10% dialyzed FBS, 0.0632 µM	10.5	58.4	39
RPMI 5 mM glucose + 10% dialyzed FBS, 0.19 µM	5.14	20.1	10.7
RPMI 5 mM glucose + 10% dialyzed FBS, 0.569 µM	4.03	3.2	2.4
RPMI 5 mM glucose + 10% dialyzed FBS, 1.71 µM	4.74	2.92	2.7
RPMI 5 mM glucose + 10% dialyzed FBS, 5.12 µM	4.6	3.18	3.68
RPMI 5 mM glucose + 10% dialyzed FBS, 15.4 µM	4.37	3.13	2.79
RPMI 5 mM glucose + 10% dialyzed FBS, 46.1 µM	5.18	31.3	9.44

AUC of viability dose-response curve
Conditions	HPLM + 10% dialyzed FBS	RPMI 5 mM glucose + 10% FBS	RPMI 5 mM glucose + 10% dialyzed FBS
[2]	216	204	217
[4]	207	197	178

N/C1=N/C(=O)C/2=C(NC[C@@H](CNC3=CC=C(C=C3)C(=O)N[C@@H](CCC([O-])=O)C([O-])=O)N2C=O)\N1
[1], HPLM + 10% dialyzed FBS
Conditions	cell viability [%]
0.000781 µM	103
0.00234 µM	114
0.00702 µM	120
0.0211 µM	115
0.0632 µM	131
0.19 µM	114
0.569 µM	117
1.71 µM	116
5.12 µM	119
15.4 µM	123
46.1 µM	136

AUC of viability dose-response curve
Conditions	HPLM + 10% dialyzed FBS	RPMI 5 mM glucose + 10% FBS	RPMI 5 mM glucose + 10% dialyzed FBS
[3]	446	465	437
[4]	319	307	321
